{"source": "patent US11415579B2", "about": "“Assay for measuring a rate of reaction between a target and a ligand candidate” (Imperial College Innovations Ltd., priority 2016, dated 2022)", "key": {"[1]": {"assay": "Kinetic thiol consumption assay with model thiol glutathione", "type": "physicochemical", "parameters": "Rate constant with glutathione (k(GSH)): unit not given here", "conditions": "for Rate constant with glutathione (k(GSH)): 500 μM ligand, 5 μM thiol, phosphate buffer pH 8; for Rate constant with Glutathione: Protein: Glutathione, cysteine position NA, in h-1", "in_short": "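Rate constants for acrylamide reaction with 5 μM glutathione come from first-order exponential fits of normalized fluorescence decay (ex 380, em 470 nm). Reactions run in degassed phosphate buffer at pH 8 containing TCEP beads, room temperature.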"}, "[2]": {"target": "T1, human cyclin-dependent kinase 2 (Cdk2) (Homo sapiens, UniProt P24941)", "T1 construct": "poly-histidine; made in house; host or cells: E. coli", "assay": "Kinetic thiol consumption assay with wild type Cdk2 (C177)", "type": "binding", "parameters": "key to Rate enhancement, Cdk2 WT: k(Cdk2) divided by k(model thiol); Rate constant with Cdk2 (k(Cdk2)): unit not given here", "conditions": "for Rate constant with Cdk2 (k(Cdk2)): 500 μM ligand, 5 μM thiol, phosphate buffer pH 8; for Rate enhancement, Cdk2 WT: no additional mutations; for Rate constant with Cdk2 WT: Protein: Cdk2, cysteine position WT, in h^-1; for k(Cdk2)/k(Cdk2_mut) rate enhancement: model thiol Cdk2[C177A, F80C, K278C]; for k(Cdk2)/k(GSH) rate enhancement: model thiol glutathione", "in_short": "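Thiol 5 μM (Cdk2 or model thiol), degassed phosphate buffer pH 8, TCEP beads 2% v/v. Plates incubated 1 h RT, ex/em 380/470 nm. First-order decay fit → rate constant; ratio Cdk2/model thiol = rate enhancement.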"}, "Cdk2[C177A, F80C, K278C]": {"target": "T2, Cdk2[C177A, F80C, K278C] (Homo sapiens, UniProt P24941, C177A/F80C/K278C)", "T2 construct": "poly-histidine; made in house; host or cells: E. coli", "assay": "Kinetic thiol consumption assay with mutant Cdk2 as model thiol", "type": "binding", "parameters": "unit not given here", "conditions": "500 μM ligand, 5 μM thiol, phosphate buffer pH 8", "in_short": "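Model thiol: His-tagged human Cdk2 C177A/F80C/K278C (two engineered surface cysteines), E. coli-expressed, 5 μM in degassed phosphate buffer pH 8 with immobilized TCEP beads (2% v/v). Fluorescence (ex/em 380/470 nm) followed over time at room temperature, normalized to DMSO/thiol control. First-order decay fit gives rate constants.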"}, "Cdk2(C177A, F80C)": {"target": "T3, Cdk2(C177A, F80C) (Homo sapiens, UniProt P24941, C177A/F80C)", "T3 construct": "poly-histidine; made in house; host or cells: E. coli", "assay": "Kinetic thiol consumption assay with Cdk2 mutant F80C, incl. kobs versus concentration (Kd, k2)", "type": "binding", "parameters": "key to Rate enhancement, Cdk2 F80C: Cdk2 rate constant divided by model-thiol rate constant", "conditions": "additional mutation C177A; for Rate constant with Cdk2 F80C: Protein: Cdk2, cysteine position F80C, in h^-1", "in_short": "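His-tagged Cdk2(C177A/F80C) from E. coli or model thiol, 5 μM in degassed phosphate buffer pH 8 with TCEP beads, reacted with acrylamide ligands; fluorescence (ex/em 380/470 nm) normalized to DMSO control and fitted to first-order decay for kobs. Kd and k2 obtained from hyperbolic fit of kobs versus ligand concentration.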"}, "Cdk2(H71C) (C177A)": {"target": "T4, Cdk2(H71C) (C177A) (Homo sapiens, UniProt P24941, C177A/H71C)", "T4 construct": "poly-histidine; made in house; host or cells: E. coli", "assay": "Kinetic thiol consumption assay with Cdk2 mutant H71C", "type": "binding", "parameters": "key to Rate enhancement, Cdk2 H71C: rate constant with Cdk2 ÷ rate constant with model thiol (fold)", "conditions": "additional mutation C177A; for Rate constant with Cdk2 H71C: Protein: Cdk2, cysteine position H71C, in h^-1", "in_short": "(§1)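 His-tagged single-surface-cysteine Cdk2 mutants (C177A background) from E. coli, 5 μM in degassed phosphate buffer pH 8, pre-treated with immobilized TCEP beads. Fluorescence (ex/em 380/470 nm) read after 1 h at room temperature, normalized to DMSO/thiol-only control; first-order decay fits gave rate constants, divided by model-thiol rate for rate enhancement.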"}, "Cdk2(S276C) (C177A)": {"target": "T5, Cdk2(S276C) (C177A) (Homo sapiens, UniProt P24941, C177A/S276C)", "T5 construct": "poly-histidine; made in house; host or cells: E. coli", "assay": "Kinetic thiol consumption assay with Cdk2 mutant S276C", "type": "binding", "parameters": "key to Rate enhancement, Cdk2 S276C: rate constant with Cdk2 ÷ rate constant with model thiol (fold)", "conditions": "additional mutation C177A; for Rate constant with Cdk2 S276C: Protein: Cdk2, cysteine position S276C, in h^-1", "in_short": "as §1"}, "Cdk2(N272C) (C177A)": {"target": "T6, Cdk2(N272C) (C177A) (Homo sapiens, UniProt P24941, C177A/N272C)", "T6 construct": "poly-histidine; made in house; host or cells: E. coli", "assay": "Kinetic thiol consumption assay with Cdk2 mutant N272C", "type": "binding", "parameters": "key to Rate enhancement, Cdk2 N272: rate constant with Cdk2 ÷ rate constant with model thiol (fold)", "conditions": "for Rate enhancement, Cdk2 N272: Cdk2 N272, additional mutation C177A; for Rate constant with Cdk2 N272C: Protein: Cdk2, cysteine position N272C, additional mutation C177A, in h^-1", "in_short": "as §1"}, "Cdk2(T182C) (C177A)": {"target": "T7, Cdk2(T182C) (C177A) (Homo sapiens, UniProt P24941, C177A/T182C)", "T7 construct": "poly-histidine; made in house; host or cells: E. coli", "assay": "Kinetic thiol consumption assay with Cdk2 mutant T182C", "type": "binding", "parameters": "key to Rate enhancement, Cdk2 T182C: rate constant with Cdk2 ÷ rate constant with model thiol (fold)", "conditions": "additional mutation C177A; for Rate constant with Cdk2 T182C: Protein: Cdk2, cysteine position T182C, in h^-1", "in_short": "as §1"}, "Cdk2(R122C) (C177A)": {"target": "T8, Cdk2(R122C) (C177A) (Homo sapiens, UniProt P24941, C177A/R122C)", "T8 construct": "poly-histidine; made in house; host or cells: E. coli", "assay": "Kinetic thiol consumption assay with Cdk2 mutant R122C", "type": "binding", "parameters": "key to Rate enhancement, Cdk2 R122C: rate constant with Cdk2 ÷ rate constant with model thiol (fold)", "conditions": "additional mutation C177A; for Rate constant with Cdk2 R122C: Protein: Cdk2, cysteine position R122C, in h-1", "in_short": "as §1"}, "Cdk2(S181C) (C177A)": {"target": "T9, Cdk2(S181C) (C177A) (Homo sapiens, UniProt P24941, C177A/S181C)", "T9 construct": "poly-histidine; made in house; host or cells: E. coli", "assay": "Kinetic thiol consumption assay with Cdk2 mutant S181C", "type": "binding", "parameters": "key to Rate enhancement, Cdk2 S181C: rate constant with Cdk2 ÷ rate constant with model thiol (fold)", "conditions": "additional mutation C177A; for Rate constant with Cdk2 S181C: Protein: Cdk2, cysteine position S181C, in h^-1", "in_short": "as §1"}}, "data": [{"compound": "C=CC(=O)Nc1ccccc1C(=O)c1ccccc1", "note": "[EL-1004]", "values": [{"measurement": "Rate constant with glutathione (k(GSH))", "setting": "[1]", "result": 0.01818}, {"measurement": "Rate constant with Glutathione", "setting": "[1]", "result": 0.01811}, {"measurement": "Rate constant with Cdk2 (k(Cdk2))", "setting": "[2]", "result": 0.06444}, {"measurement": "Rate enhancement, Cdk2 WT", "setting": "[2]", "result": 3.558}, {"measurement": "Rate constant with Cdk2 WT", "setting": "[2]", "result": 0.06444}, {"measurement": "k(Cdk2)/k(Cdk2_mut) rate enhancement", "setting": "[2]", "result": 0.3351}, {"measurement": "k(Cdk2)/k(GSH) rate enhancement", "setting": "[2]", "result": 3.545}, {"measurement": "Rate constant with Cdk2[C177A, F80C, K278C] (k(Cdk2_mut))", "setting": "Cdk2[C177A, F80C, K278C]", "result": 0.1923}, {"measurement": "Rate enhancement, Cdk2 F80C", "setting": "Cdk2(C177A, F80C)", "result": 22.32}, {"measurement": "Rate constant with Cdk2 F80C", "setting": "Cdk2(C177A, F80C)", "result": 0.4042}, {"measurement": "Rate enhancement, Cdk2 H71C", "setting": "Cdk2(H71C) (C177A)", "result": 2.131}, {"measurement": "Rate constant with Cdk2 H71C", "setting": "Cdk2(H71C) (C177A)", "result": 0.03859}, {"measurement": "Rate enhancement, Cdk2 S276C", "setting": "Cdk2(S276C) (C177A)", "result": 1.281}, {"measurement": "Rate constant with Cdk2 S276C", "setting": "Cdk2(S276C) (C177A)", "result": 0.02319}, {"measurement": "Rate enhancement, Cdk2 N272", "setting": "Cdk2(N272C) (C177A)", "result": 0.4117}, {"measurement": "Rate constant with Cdk2 N272C", "setting": "Cdk2(N272C) (C177A)", "result": 0.007455}, {"measurement": "Rate enhancement, Cdk2 T182C", "setting": "Cdk2(T182C) (C177A)", "result": 7.09}, {"measurement": "Rate constant with Cdk2 T182C", "setting": "Cdk2(T182C) (C177A)", "result": 0.1284}, {"measurement": "Rate enhancement, Cdk2 R122C", "setting": "Cdk2(R122C) (C177A)", "result": 0.9845}, {"measurement": "Rate constant with Cdk2 R122C", "setting": "Cdk2(R122C) (C177A)", "result": 0.01783}, {"measurement": "Rate enhancement, Cdk2 S181C", "setting": "Cdk2(S181C) (C177A)", "result": 0.9371}, {"measurement": "Rate constant with Cdk2 S181C", "setting": "Cdk2(S181C) (C177A)", "result": 0.01697}]}, {"compound": "C=CC(=O)Nc1nc2ccccc2n1CCc1ccccn1", "note": "[CA-144]", "values": [{"measurement": "Rate constant with glutathione (k(GSH))", "setting": "[1]", "result": 0.0414}, {"measurement": "Rate constant with Glutathione", "setting": "[1]", "result": 0.04163}, {"measurement": "Rate constant with Cdk2 (k(Cdk2))", "setting": "[2]", "result": 0.04682}, {"measurement": "Rate enhancement, Cdk2 WT", "setting": "[2]", "result": 1.125}, {"measurement": "Rate constant with Cdk2 WT", "setting": "[2]", "result": 0.04682}, {"measurement": "k(Cdk2)/k(Cdk2_mut) rate enhancement", "setting": "[2]", "result": 3.77}, {"measurement": "k(Cdk2)/k(GSH) rate enhancement", "setting": "[2]", "result": 1.131}, {"measurement": "Rate constant with Cdk2[C177A, F80C, K278C] (k(Cdk2_mut))", "setting": "Cdk2[C177A, F80C, K278C]", "result": 0.01242}, {"measurement": "Rate enhancement, Cdk2 F80C", "setting": "Cdk2(C177A, F80C)", "result": 0.4956}, {"measurement": "Rate constant with Cdk2 F80C", "setting": "Cdk2(C177A, F80C)", "result": 0.02063}, {"measurement": "Rate enhancement, Cdk2 H71C", "setting": "Cdk2(H71C) (C177A)", "result": 8.256}, {"measurement": "Rate constant with Cdk2 H71C", "setting": "Cdk2(H71C) (C177A)", "result": 0.3437}, {"measurement": "Rate enhancement, Cdk2 S276C", "setting": "Cdk2(S276C) (C177A)", "result": 1.262}, {"measurement": "Rate constant with Cdk2 S276C", "setting": "Cdk2(S276C) (C177A)", "result": 0.05252}, {"measurement": "Rate enhancement, Cdk2 N272", "setting": "Cdk2(N272C) (C177A)", "result": 2.14}, {"measurement": "Rate constant with Cdk2 N272C", "setting": "Cdk2(N272C) (C177A)", "result": 0.08909}, {"measurement": "Rate enhancement, Cdk2 T182C", "setting": "Cdk2(T182C) (C177A)", "result": 2.327}, {"measurement": "Rate constant with Cdk2 T182C", "setting": "Cdk2(T182C) (C177A)", "result": 0.09687}, {"measurement": "Rate enhancement, Cdk2 R122C", "setting": "Cdk2(R122C) (C177A)", "result": 0.9491}, {"measurement": "Rate constant with Cdk2 R122C", "setting": "Cdk2(R122C) (C177A)", "result": 0.03951}, {"measurement": "Rate enhancement, Cdk2 S181C", "setting": "Cdk2(S181C) (C177A)", "result": 0.4516}, {"measurement": "Rate constant with Cdk2 S181C", "setting": "Cdk2(S181C) (C177A)", "result": 0.0188}]}]}
